Data as given in patent publication US8080529B2, “Macrolides with anti-inflammatory activity” (Glaxo Group Limited, priority 2005, dated 2011).
Read-outs that look alike come from different tables or passages of the source.

Columns and labels:
[1] = system: TNF-α; assay: Inhibition of TNF-α production by stimulated human peripheral blood leukocytes in vitro; type: cell-based; settings: Homo sapiens, Leukocyte, read-out: Percentage of inhibition of TNF-α production
In short: (§1)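 Cytokines in supernatants measured by sandwich ELISA after overnight stimulation (2 μg/mL LPS, 1 μg/mL PMA or 120 μg/mL zymosan) of healthy-donor leukocytes pretreated 2 h with 10 or 50 μM compound. Percent inhibition calculated relative to stimulated cells lacking compound.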

[2] = system: IL-1α; assay: Inhibition of IL-1 production by stimulated human peripheral blood leukocytes in vitro; type: cell-based; settings: Homo sapiens, Leukocyte, read-out: Percentage of inhibition of IL-1α production
[3] = system: IL-6; assay: Inhibition of IL-6 production by stimulated human peripheral blood leukocytes in vitro; type: cell-based; settings: Homo sapiens, Leukocyte, read-out: Percentage of inhibition of IL-6 production
In short: as §1

[4] = system: IL-8; assay: Inhibition of IL-8 production by stimulated human peripheral blood leukocytes in vitro; type: cell-based; settings: Homo sapiens, Leukocyte, read-out: Percentage of inhibition of IL-8 production
In short: as §1

[5] = system: human peripheral blood mononuclear cells (PBMC); assay: Effects on human T-cell proliferation in vitro (3H-thymidine incorporation); type: cell-based; settings: Homo sapiens, PBMC, read-out: Percentage of inhibition of proliferation of stimulated PBMC
In short: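 Proliferation of human peripheral blood mononuclear cells (PBMC) was assessed in the presence of test compounds. During the final 18 h of culture each well received 1 μCi of ^3H-thymidine. Cells were then collected onto a 96-well filter with a multiple cell harvester, and ^3H-thymidine incorporation was counted on a TopCount NXT to give percentage inhibition of proliferation.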

[6] = system: Hep G2; assay: Cytotoxicity assay (MTT), Hep G2 cell line; type: cell-based; settings: 24 h
In short: (§2)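 Viability was read as MTT-formazan absorbance at 490 nm after 0.5-2 h with reagent. This followed 24 h compound exposure (50 μM, 12.5 μM) at 37° C in RPM medium. Result expressed as OD490 treated over untreated cells ×100.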

[7] = system: A549; assay: Cytotoxicity assay (MTT), A549 cell line; type: cell-based; settings: 24 h
In short: as §2

[8] = system: TNF-α; assay: Lipopolysaccharide induced TNF-α production in Balb/cJ mice; type: in vivo; settings: Mus musculus, ip, 1.5 h; 10 mg/kg intraperitoneally, 30 min before LPS; 90 min after LPS; read-out: % inhibition of TNF-α production (plasma)

CC[C@H]1OC(=O)[C@H](C)[C@@H](O[C@H]2C[C@@](C)(OC)[C@@H](OC(=O)CCN(C)C)[C@H](C)O2)[C@H](C)[C@@H](O[C@@H]2O[C@H](C)C[C@H](N(C)C)[C@H]2O)[C@](C)(OC)C[C@@H](C)C(=O)N[C@H](C)[C@@H](O)[C@]1(C)O [Example 12, 4″-O-(3-dimethylamino-propionyl)-6-O-methyl-9a-aza-9a-homoerythromycin A]
inhibition at 10 µM ([1]; LPS-stimulated PBL): 23% | inhibition at 10 µM ([1]; PMA-stimulated PBL): 49% | inhibition at 10 µM ([1]; zymosan-stimulated PBL): 77% | inhibition at 50 µM ([1]; LPS-stimulated PBL): 92% | inhibition at 50 µM ([1]; PMA-stimulated PBL): 97% | inhibition at 50 µM ([1]; zymosan-stimulated PBL): 97% | inhibition at 10 µM ([2]; LPS-stimulated PBL): 43% | inhibition at 10 µM ([2]; PMA-stimulated PBL): 45% | inhibition at 10 µM ([2]; zymosan-stimulated PBL): 88% | inhibition at 50 µM ([2]; LPS-stimulated PBL): 95% | inhibition at 50 µM ([2]; PMA-stimulated PBL): 90% | inhibition at 50 µM ([2]; zymosan-stimulated PBL): 100% | inhibition at 10 µM ([3]; LPS-stimulated PBL): 16% | inhibition at 10 µM ([3]; PMA-stimulated PBL): 32% | inhibition at 10 µM ([3]; zymosan-stimulated PBL): 67% | inhibition at 50 µM ([3]; LPS-stimulated PBL): 81% | inhibition at 50 µM ([3]; PMA-stimulated PBL): 67% | inhibition at 50 µM ([3]; zymosan-stimulated PBL): 91% | inhibition at 10 µM ([4]; LPS-stimulated PBL): 7% | inhibition at 10 µM ([4]; PMA-stimulated PBL): 0% | inhibition at 10 µM ([4]; zymosan-stimulated PBL): 2% | inhibition at 50 µM ([4]; LPS-stimulated PBL): 72% | inhibition at 50 µM ([4]; PMA-stimulated PBL): 3% | inhibition at 50 µM ([4]; zymosan-stimulated PBL): 9% | inhibition at 10 µM ([5]; PHA): 33% | inhibition at 50 µM ([5]; PHA): 99% | inhibition at 10 µM ([5]; PMA + iono.): 29% | inhibition at 50 µM ([5]; PMA + iono.): 96% | Percentage of inhibition of cell growth ([6]; 12.5 μM): 0% | Percentage of inhibition of cell growth ([6]; 50 μM): 0% | Percentage of inhibition of cell growth ([7]; 12.5 μM): 8% | Percentage of inhibition of cell growth ([7]; 50 μM): 4% | inhibition in vivo at 10 mg/kg [8]: 69%

CC[C@H]1OC(=O)[C@H](C)[C@@H](O[C@H]2C[C@@](C)(OC)[C@@H](OC(=O)CCN3CCCN(CCCN4CCCC4)CC3)[C@H](C)O2)[C@H](C)[C@@H](O[C@@H]2O[C@H](C)C[C@H](N(C)C)[C@H]2O)[C@](C)(OC)C[C@@H](C)C(=O)N[C@H](C)[C@@H](O)[C@]1(C)O [Example 34]
inhibition at 10 µM ([1]; LPS-stimulated PBL): 55% | inhibition at 10 µM ([1]; PMA-stimulated PBL): 86% | inhibition at 10 µM ([1]; zymosan-stimulated PBL): 65% | inhibition at 50 µM ([1]; LPS-stimulated PBL): 96% | inhibition at 50 µM ([1]; PMA-stimulated PBL): 100% | inhibition at 50 µM ([1]; zymosan-stimulated PBL): 100% | inhibition at 10 µM ([2]; LPS-stimulated PBL): 69% | inhibition at 10 µM ([2]; PMA-stimulated PBL): 86% | inhibition at 10 µM ([2]; zymosan-stimulated PBL): 77% | inhibition at 50 µM ([2]; LPS-stimulated PBL): 82% | inhibition at 50 µM ([2]; PMA-stimulated PBL): 100% | inhibition at 50 µM ([2]; zymosan-stimulated PBL): 99% | inhibition at 10 µM ([3]; LPS-stimulated PBL): 28% | inhibition at 10 µM ([3]; PMA-stimulated PBL): 66% | inhibition at 10 µM ([3]; zymosan-stimulated PBL): 66% | inhibition at 50 µM ([3]; LPS-stimulated PBL): 91% | inhibition at 50 µM ([3]; PMA-stimulated PBL): 95% | inhibition at 50 µM ([3]; zymosan-stimulated PBL): 99% | inhibition at 10 µM ([4]; LPS-stimulated PBL): 21% | inhibition at 10 µM ([4]; PMA-stimulated PBL): 33% | inhibition at 10 µM ([4]; zymosan-stimulated PBL): 32% | inhibition at 50 µM ([4]; LPS-stimulated PBL): 87% | inhibition at 50 µM ([4]; PMA-stimulated PBL): 76% | inhibition at 50 µM ([4]; zymosan-stimulated PBL): 81% | inhibition at 10 µM ([5]; PHA): 66% | inhibition at 50 µM ([5]; PHA): 99% | inhibition at 10 µM ([5]; PMA + iono.): 0% | inhibition at 50 µM ([5]; PMA + iono.): 87% | Percentage of inhibition of cell growth ([6]; 12.5 μM): 7% | Percentage of inhibition of cell growth ([6]; 50 μM): 1% | Percentage of inhibition of cell growth ([7]; 12.5 μM): 0% | Percentage of inhibition of cell growth ([7]; 50 μM): 1% | inhibition in vivo at 10 mg/kg [8]: 78%

CC[C@H]1OC(=O)[C@H](C)[C@@H](O[C@H]2C[C@@](C)(OC)[C@@H](OC(=O)CCN(C)CCN(CC)CC)[C@H](C)O2)[C@H](C)[C@@H](O[C@@H]2O[C@H](C)C[C@H](N(C)C)[C@H]2O)[C@](C)(OC)C[C@@H](C)C(=O)N[C@H](C)[C@@H](O)[C@]1(C)O [Example 21]
inhibition at 10 µM ([1]; LPS-stimulated PBL): 0% | inhibition at 10 µM ([1]; PMA-stimulated PBL): 8% | inhibition at 10 µM ([1]; zymosan-stimulated PBL): 5% | inhibition at 50 µM ([1]; LPS-stimulated PBL): 10% | inhibition at 50 µM ([1]; PMA-stimulated PBL): 75% | inhibition at 50 µM ([1]; zymosan-stimulated PBL): 39% | inhibition at 10 µM ([2]; LPS-stimulated PBL): 14% | inhibition at 10 µM ([2]; PMA-stimulated PBL): 31% | inhibition at 10 µM ([2]; zymosan-stimulated PBL): 58% | inhibition at 50 µM ([2]; LPS-stimulated PBL): 54% | inhibition at 50 µM ([2]; PMA-stimulated PBL): 69% | inhibition at 50 µM ([2]; zymosan-stimulated PBL): 86% | inhibition at 10 µM ([3]; LPS-stimulated PBL): 1% | inhibition at 10 µM ([3]; PMA-stimulated PBL): 17% | inhibition at 10 µM ([3]; zymosan-stimulated PBL): 22% | inhibition at 50 µM ([3]; LPS-stimulated PBL): 22% | inhibition at 50 µM ([3]; PMA-stimulated PBL): 63% | inhibition at 50 µM ([3]; zymosan-stimulated PBL): 50% | inhibition at 10 µM ([4]; LPS-stimulated PBL): 0% | inhibition at 10 µM ([4]; PMA-stimulated PBL): 6% | inhibition at 10 µM ([4]; zymosan-stimulated PBL): 0% | inhibition at 50 µM ([4]; LPS-stimulated PBL): 4% | inhibition at 50 µM ([4]; PMA-stimulated PBL): 23% | inhibition at 50 µM ([4]; zymosan-stimulated PBL): 13% | inhibition at 10 µM ([5]; PHA): 0% | inhibition at 50 µM ([5]; PHA): 80% | inhibition at 10 µM ([5]; PMA + iono.): 0% | inhibition at 50 µM ([5]; PMA + iono.): 74% | Percentage of inhibition of cell growth ([6]; 12.5 μM): 8% | Percentage of inhibition of cell growth ([6]; 50 μM): 4% | Percentage of inhibition of cell growth ([7]; 12.5 μM): 5% | Percentage of inhibition of cell growth ([7]; 50 μM): 4% | inhibition in vivo at 10 mg/kg [8]: 61%

CC[C@H]1OC(=O)[C@H](C)C(O[C@H]2C[C@@](C)(OC)[C@@H](OC(=O)CCN(CC)CC)[C@H](C)O2)[C@H](C)[C@@H](O[C@@H]2O[C@H](C)C[C@H](N(C)C)[C@H]2O)[C@](C)(OC)C[C@@H](C)C(=O)[C@H](C)[C@H](O)[C@]1(C)O (stereo partly drawn) [Example 49, 4″-O-(3-Diethylamino-propionyl)-6-O-methylerithromycin A]
inhibition at 10 µM ([1]; LPS-stimulated PBL): 69% | inhibition at 10 µM ([1]; PMA-stimulated PBL): 37% | inhibition at 10 µM ([1]; zymosan-stimulated PBL): 70% | inhibition at 50 µM ([1]; LPS-stimulated PBL): 91% | inhibition at 50 µM ([1]; PMA-stimulated PBL): 86% | inhibition at 50 µM ([1]; zymosan-stimulated PBL): 93% | inhibition at 10 µM ([2]; LPS-stimulated PBL): 84% | inhibition at 10 µM ([2]; PMA-stimulated PBL): 35% | inhibition at 10 µM ([2]; zymosan-stimulated PBL): 76% | inhibition at 50 µM ([2]; LPS-stimulated PBL): 86% | inhibition at 50 µM ([2]; PMA-stimulated PBL): 84% | inhibition at 50 µM ([2]; zymosan-stimulated PBL): 25% | inhibition at 10 µM ([3]; LPS-stimulated PBL): 70% | inhibition at 10 µM ([3]; PMA-stimulated PBL): 76% | inhibition at 10 µM ([3]; zymosan-stimulated PBL): 76% | inhibition at 50 µM ([3]; LPS-stimulated PBL): 99% | inhibition at 50 µM ([3]; PMA-stimulated PBL): 86% | inhibition at 50 µM ([3]; zymosan-stimulated PBL): 97% | inhibition at 10 µM ([4]; LPS-stimulated PBL): 44% | inhibition at 10 µM ([4]; PMA-stimulated PBL): 0% | inhibition at 10 µM ([4]; zymosan-stimulated PBL): 15% | inhibition at 50 µM ([4]; LPS-stimulated PBL): 86% | inhibition at 50 µM ([4]; PMA-stimulated PBL): 95% | inhibition at 50 µM ([4]; zymosan-stimulated PBL): 54% | inhibition at 10 µM ([5]; PHA): 44% | inhibition at 50 µM ([5]; PHA): 99% | inhibition at 10 µM ([5]; PMA + iono.): 24% | inhibition at 50 µM ([5]; PMA + iono.): 100% | Percentage of inhibition of cell growth ([6]; 12.5 μM): 5% | Percentage of inhibition of cell growth ([6]; 50 μM): 26% | Percentage of inhibition of cell growth ([7]; 12.5 μM): 0% | Percentage of inhibition of cell growth ([7]; 50 μM): 6% | inhibition in vivo at 10 mg/kg [8]: 43%
